Data taken from paper PMC10568103, “Quantification of soluble epoxide hydrolase inhibitors in experimental and clinical samples using the nanobody-based ELISA” (Journal of Pharmaceutical Analysis, 2023).
pIC50: −log10 of the molar value. One block for each molecule: values may come before it.

Assays:
[1] = tested on: Nb-TP02; assay: Nb-based indirect competitive ELISA for TPPU (TPPU immunoassay); format: binding, llama; conditions: for TPPU immunoassay CR: CR% = IC50 (TPPU)/IC50 (analog) × 100%; for TPPU immunoassay IC50: Nb-TP02, cAg 6-OVA
Description: The limit of detection (LOD) of Nb-based ELISAs for detecting the concentrations of the sEHI was defined as the concentration of sEHI that provided a 10% inhibition rate (IC10 value). […]

[2] = tested on: Nb-EC03; assay: Nb-based indirect competitive ELISA for EC5026 (EC5026 immunoassay); conditions: for EC5026 immunoassay CR: CR% = IC50 (EC5026)/IC50 (analog) × 100%; for EC5026 immunoassay IC50: Nb-EC03, cAg 2-BSA
Description: (d) 100 μL of HRP-anti-HA was introduced, incubated and shaken for another 60 min; (e) after the final washing step, 100 μL of the TMB substrate solution was added and incubated for 15 min, followed by being stopped by 50 μL of H2SO4 solution (1.0 M). […] The linear range was established between the IC20 value and the IC80 value.

[3] = molecular target: T1, human sEH (Homo sapiens, UniProt P34913); assay: Activity on the target sEH enzyme; format: biochemical
T1 sequence (P34913 1-555): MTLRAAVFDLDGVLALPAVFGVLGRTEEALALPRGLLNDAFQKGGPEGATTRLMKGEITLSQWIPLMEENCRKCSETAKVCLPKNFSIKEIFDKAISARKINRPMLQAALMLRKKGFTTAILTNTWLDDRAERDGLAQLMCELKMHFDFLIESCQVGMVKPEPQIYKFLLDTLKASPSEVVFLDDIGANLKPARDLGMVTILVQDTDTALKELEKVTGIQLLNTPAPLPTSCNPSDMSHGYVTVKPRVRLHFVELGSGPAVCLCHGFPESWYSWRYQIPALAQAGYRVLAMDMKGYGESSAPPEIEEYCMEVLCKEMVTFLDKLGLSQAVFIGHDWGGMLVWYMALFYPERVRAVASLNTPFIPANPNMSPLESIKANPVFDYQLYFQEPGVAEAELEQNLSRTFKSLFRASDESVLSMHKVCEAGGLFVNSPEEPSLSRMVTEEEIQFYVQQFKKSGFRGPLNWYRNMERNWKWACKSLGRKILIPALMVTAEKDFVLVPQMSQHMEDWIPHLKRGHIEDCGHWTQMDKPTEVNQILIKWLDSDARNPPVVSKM

[4] = LC-MS analysis of urine samples from human clinical trial with EC5026; format: in vivo
Description: To assess the feasibility of Nb-based ELISAs for EC5026 and TPPU, the human urine and FBS were used as the matrix for precision and accuracy determination. The precision is shown as coefficient variation (CV%). The accuracy is expressed by the recovery, and the recovery is calculated as (Found concentration/Spiked concentration) × 100%. The standard solutions of EC5026 or TPPU were spiked blindly into human urine and FBS to obtain final concentrations of 1.25, 5 and 20 ng/mL, respectively. The experimental urine samples were collected from participants in the human clinical trial for EC5026, and the supernatant was collected by centrifugation (10,000 g, 5 min, 4 °C). The processed clinical samples were divided into two aliquots. One was diluted 10 times and then was detected by the Nb-based ELISA, and the other was for the LC-MS analysis directly in a bind fashion by different scientists.
The urine samples were analyzed by an LC-MS/MS method using Waters (Milford, MA, USA) Acquity UPLC system with Waters Xevo TQS tandem mass spectrometer. The separation was implemented on a Phenomenex Kinetex 150 x 2 mm C18 column. The mobile phases are 0.1 % of acetic acid in water as phase A, 0.1% of acetic acid in methanol as phase B. The gradient of the separation started from 50% of B and increased to 63% of B at 3.6 min then ramped to 95% at 4 min. The flow rate was 0.4 mL/min. The mass spectrometer was operated with negative electrospray ionization. The MRM transitions are 404.2/194 for EC5026, 420.2/194 for both M1 and M2. The source parameters of mass spectrometer are: capillary voltage: –3 KV, desolvation temperature: 300°C, desolvation gas flow: 800 L/hr; cone: 150 L/min; nebulizer: 7 bar.

[5] = molecular target: T1, human sEH; assay: Inhibition of human sEH in vitro (potency unit definition, assay of Jones et al.); format: biochemical; conditions: 1 nM human sEH, read-out: 1 Potency unit: concentration permitting the inhibition of 50% of 1 nM of the human sEH
[6] = Subject 1, 0–8 h post exposure to EC5026
[7] = Subject 1, 8–16 h post exposure to EC5026
[8] = Subject 1, 16–24 h post exposure to EC5026
[9] = Subject 1, 24–32 h post exposure to EC5026
[10] = Subject 1, 32–40 h post exposure to EC5026
[11] = Subject 1, 40–48 h post exposure to EC5026
[12] = Subject 2, 0–8 h post exposure to EC5026
[13] = Subject 2, 8–16 h post exposure to EC5026
[14] = Subject 2, 16–24 h post exposure to EC5026
[15] = Subject 2, 24–32 h post exposure to EC5026
[16] = Subject 2, 32–40 h post exposure to EC5026
[17] = Subject 2, 40–48 h post exposure to EC5026
[18] = Subject 3, 0–8 h post exposure to EC5026
[19] = Subject 3, 8–16 h post exposure to EC5026
[20] = Subject 3, 16–24 h post exposure to EC5026
[21] = Subject 3, 24–32 h post exposure to EC5026
[22] = Subject 3, 32–40 h post exposure to EC5026
[23] = Subject 3, 40–48 h post exposure to EC5026

SMILES: O=C(Nc1ccc(OC(F)(F)F)c(F)c1)NC1CCNCC1 [Compound 11, 1-(3-fluoro-4-(trifluoromethoxy)phenyl)-3-(piperidin-4-yl)urea]
TPPU immunoassay CR [1]: 33.4% | TPPU immunoassay IC50 [1]: 8.91 ng/mL | EC5026 immunoassay CR [2]: 34.0% | EC5026 immunoassay IC50 [2]: 4.23 ng/mL

SMILES: O=C(Nc1ccc(OC(F)(F)F)cc1)NC1CCNCC1 [Compound 12]
TPPU immunoassay CR [1]: 25.6% | TPPU immunoassay IC50 [1]: 11.66 ng/mL

SMILES: Nc1ccc(OC(F)(F)F)c(F)c1 [Compound 14, 3-fluoro-4-(trifluoromethoxy)aniline]
pIC50 [3]: < 4.30 | TPPU immunoassay CR [1]: <0.01% | TPPU immunoassay IC50 [1]: >300000 ng/mL | EC5026 immunoassay CR [2]: <0.01% | EC5026 immunoassay IC50 [2]: >150000 ng/mL

SMILES: Nc1ccc(OC(F)(F)F)cc1 [Compound 15, 4-(trifluoromethoxy)aniline]
pIC50 [3]: < 4.30 | TPPU immunoassay CR [1]: <0.01% | TPPU immunoassay IC50 [1]: >300000 ng/mL | EC5026 immunoassay CR [2]: <0.01% | EC5026 immunoassay IC50 [2]: >150000 ng/mL

SMILES: CC[C@H](C)C(=O)N1CCC(NC(=O)Nc2ccc(OC(F)(F)F)c(F)c2)CC1 [EC5026]
[EC5026] LC-MS analysis [4, 6]: 2.96 ng/mL | [EC5026] LC-MS analysis [4, 7]: 1.41 ng/mL | [EC5026] LC-MS analysis [4, 8]: 1.81 ng/mL | [EC5026] LC-MS analysis [4, 9]: 1.43 ng/mL | [EC5026] LC-MS analysis [4, 10]: 1.63 ng/mL | [EC5026] LC-MS analysis [4, 11]: 1.24 ng/mL | [EC5026] LC-MS analysis [4, 12]: 3.01 ng/mL | [EC5026] LC-MS analysis [4, 13]: 5.57 ng/mL | [EC5026] LC-MS analysis [4, 14]: 4.86 ng/mL | [EC5026] LC-MS analysis [4, 15]: 2.84 ng/mL | [EC5026] LC-MS analysis [4, 16]: 3.46 ng/mL | [EC5026] LC-MS analysis [4, 17]: 2.01 ng/mL | [EC5026] LC-MS analysis [4, 18]: 6.53 ng/mL | [EC5026] LC-MS analysis [4, 19]: 4.69 ng/mL | [EC5026] LC-MS analysis [4, 20]: 2.59 ng/mL | [EC5026] LC-MS analysis [4, 21]: 2.98 ng/mL | [EC5026] LC-MS analysis [4, 22]: 2.06 ng/mL | [EC5026] LC-MS analysis [4, 23]: 1.18 ng/mL | TPPU immunoassay CR [1]: 86.6% | TPPU immunoassay IC50 [1]: 3.44 ng/mL | EC5026 immunoassay CR [2]: 100% | Curve parameters IC50 ([2]; Nb-EC03, cAg 1-BSA (homologous)): 7.32 ng/mL | Curve parameters IC50 ([2]; Nb-EC03, cAg 1-OVA (homologous)): 5.68 ng/mL | EC5026 immunoassay IC50 [2]: 1.44 ng/mL | Curve parameters IC50 ([2]; Nb-EC03, cAg 2-OVA (homologous)): 1.48 ng/mL | Curve parameters IC50 ([2]; Nb-EC03, cAg 3-BSA (heterologous)): 11.45 ng/mL | Curve parameters IC50 ([2]; Nb-EC03, cAg 3-OVA (heterologous)): 12.49 ng/mL

The next lines start with results.

[M1] LC-MS analysis [4, 6]: 24.22 ng/mL | [M1] LC-MS analysis [4, 7]: 44.30 ng/mL | [M1] LC-MS analysis [4, 8]: 35.82 ng/mL | [M1] LC-MS analysis [4, 9]: 48.89 ng/mL | [M1] LC-MS analysis [4, 10]: 36.78 ng/mL | [M1] LC-MS analysis [4, 11]: 33.49 ng/mL | [M1] LC-MS analysis [4, 12]: 12.48 ng/mL | [M1] LC-MS analysis [4, 13]: 38.41 ng/mL | [M1] LC-MS analysis [4, 14]: 43.37 ng/mL | [M1] LC-MS analysis [4, 15]: 35.76 ng/mL | [M1] LC-MS analysis [4, 16]: 55.70 ng/mL | [M1] LC-MS analysis [4, 17]: 40.74 ng/mL | [M1] LC-MS analysis [4, 18]: 13.41 ng/mL | [M1] LC-MS analysis [4, 19]: 36.41 ng/mL | [M1] LC-MS analysis [4, 20]: 67.03 ng/mL | [M1] LC-MS analysis [4, 21]: 31.25 ng/mL | [M1] LC-MS analysis [4, 22]: 67.62 ng/mL | [M1] LC-MS analysis [4, 23]: 98.28 ng/mL | pIC50 [5]: 10.02 | TPPU immunoassay IC50 [1]: 4.10 ng/mL | EC5026 immunoassay IC50 [2]: 1.47 ng/mL
SMILES: C[C@H](C(=O)N1CCC(NC(=O)Nc2ccc(OC(F)(F)F)c(F)c2)CC1)[C@@H](C)O [M1, 1-(3-fluoro-4-(trifluoromethoxy)phenyl)-3-(1-((2S,3R)-3-hydroxy-2-methylbutanoyl)piperidin-4-yl)urea]
TPPU immunoassay CR [1]: 72.7%

[M2] LC-MS analysis [4, 6]: 28.66 ng/mL | [M2] LC-MS analysis [4, 7]: 61.59 ng/mL | [M2] LC-MS analysis [4, 8]: 51.04 ng/mL | [M2] LC-MS analysis [4, 9]: 67.21 ng/mL | [M2] LC-MS analysis [4, 10]: 47.44 ng/mL | [M2] LC-MS analysis [4, 11]: 43.94 ng/mL | [M2] LC-MS analysis [4, 12]: 12.99 ng/mL | [M2] LC-MS analysis [4, 13]: 53.46 ng/mL | [M2] LC-MS analysis [4, 14]: 59.34 ng/mL | [M2] LC-MS analysis [4, 15]: 45.69 ng/mL | [M2] LC-MS analysis [4, 16]: 75.89 ng/mL | [M2] LC-MS analysis [4, 17]: 52.38 ng/mL | [M2] LC-MS analysis [4, 18]: 14.93 ng/mL | [M2] LC-MS analysis [4, 19]: 50.31 ng/mL | [M2] LC-MS analysis [4, 20]: 106.12 ng/mL | [M2] LC-MS analysis [4, 21]: 44.20 ng/mL | [M2] LC-MS analysis [4, 22]: 103.57 ng/mL | [M2] LC-MS analysis [4, 23]: 158.70 ng/mL | pIC50 [5]: 10.02 | TPPU immunoassay IC50 [1]: 5.01 ng/mL | EC5026 immunoassay IC50 [2]: 1.38 ng/mL
SMILES: C[C@H](O)[C@H](C)C(=O)N1CCC(NC(=O)Nc2ccc(OC(F)(F)F)c(F)c2)CC1 [M2, 1-(3-fluoro-4-(trifluoromethoxy)phenyl)-3-(1-((2S,3S)-3-hydroxy-2-methylbutanoyl)piperidin-4-yl)urea]
TPPU immunoassay CR [1]: 59.4%

Curve parameters IC50 ([1]; Nb-TP02, cAg 4-BSA (homologous)): 2.53 ng/mL | Curve parameters IC50 ([1]; Nb-TP02, cAg 4-OVA (homologous)): 2.76 ng/mL | Curve parameters IC50 ([1]; Nb-TP02, cAg 5-BSA (homologous)): 4.53 ng/mL | Curve parameters IC50 ([1]; Nb-TP02, cAg 5-OVA (homologous)): 2.44 ng/mL | Curve parameters IC50 ([1]; Nb-TP02, cAg 6-BSA (heterologous)): 2.40 ng/mL | TPPU immunoassay IC50 [1]: 2.98 ng/mL | EC5026 immunoassay CR [2]: 52.9% | EC5026 immunoassay IC50 [2]: 2.72 ng/mL
SMILES: CCC(=O)N1CCC(NC(=O)Nc2ccc(OC(F)(F)F)cc2)CC1 [TPPU, 1-trifluoromethoxyphenyl-3-(1-propionylpiperidin-4-yl)urea]
TPPU immunoassay CR [1]: 100%
